Literature values, collected in paper PMC7426938, “Induction of mitochondria-mediated apoptosis and suppression of tumor growth in zebrafish xenograft model by cyclic dipeptides identified from Exiguobacterium acetylicum” (Scientific Reports, 2020).
pIC50: −log10 of the molar value. Converted amounts (≈) assume the structure as drawn.

Experiments:
[1] = system: HT-29 cells; parameters: method as in PMID 15274345; conditions: read-out: dose giving 50% growth inhibition; cited from earlier work
[2] = system: HeLa cells; parameters: method as in PMID 15274345; conditions: read-out: dose giving 50% growth inhibition; cited from earlier work
[3] = system: MCF-7 cells; parameters: method as in PMID 15274345; conditions: read-out: dose giving 50% growth inhibition; cited from earlier work
[4] = system: HL-60 cells; parameters: method as in PMID 29211005, PMID 10052845; conditions: cited from earlier work
[5] = system: HT-29 cells; parameters: method as in PMID 29211005, PMID 10052845; conditions: cited from earlier work

| Compound | pIC50 [1] | pIC50 [2] | pIC50 [3] | IC50, anti-proliferative effect [4] | IC50, anti-proliferative effect [5] |
| --- | --- | --- | --- | --- | --- |
| O=C1NC(Cc2ccccc2)C(=O)N2CCCC12 (centres unmarked) [cyclo (Phe-Pro)] | > 2.15 | > 2.15 | > 2.15 | – | – |
| O=C1NC(Cc2ccc(O)cc2)C(=O)N2CCCC12 (centres unmarked) [cyclo (Tyr-Pro)] | > 2.15 | > 2.15 | > 2.15 | – | – |
| CC(C)C[C@@H]1NC(=O)[C@H](NC(=O)c2cccc(O)c2O)CCCNC1=O [petrocidin-A] | – | – | – | 3.9 µg/mL (≈ 10.7 µM) | 5.3 µg/mL (≈ 14.6 µM) |
